Test results: PubChem BioAssay (NCI)
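Compound exposure: 48 hours, 5 concentrations, 96-well plates. At the GI50, growth is halved. TGI marks complete inhibition of growth.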

Assays:
Assay in all cases: NCI-60 cell line screen, 48 h
[1] = system: T-47D breast
[2] = system: OVCAR-5 ovarian
[3] = system: UACC-257 melanoma
[4] = system: MOLT-4 leukemia
[5] = system: HCT-116 colon
[6] = system: CCRF-CEM leukemia
[7] = system: 786-0 renal
[8] = system: ACHN renal
[9] = system: KM12 colon
[10] = system: UO-31 renal
[11] = system: M14 melanoma
[12] = system: OVCAR-4 ovarian
[13] = system: COLO 205 colon
[14] = system: MDA-MB-231 breast
[15] = system: SNB-19 CNS
[16] = system: SK-OV-3 ovarian
[17] = system: SN12C renal
[18] = system: HS 578T breast
[19] = system: A498 renal
[20] = system: SK-MEL-2 melanoma
[21] = system: SK-MEL-5 melanoma
[22] = system: HL-60(TB) leukemia
[23] = system: NCI-H23 lung
[24] = system: SF-539 CNS
[25] = system: SNB-75 CNS
[26] = system: LOX IMVI melanoma
[27] = system: NCI-H522 lung
[28] = system: MDA-MB-435
[29] = system: K-562 leukemia
[30] = system: SK-MEL-28 melanoma
[31] = system: OVCAR-3 ovarian
[32] = system: OVCAR-8 ovarian
[33] = system: UACC-62 melanoma
[34] = system: IGROV1 ovarian
[35] = system: RXF 393 renal
[36] = system: EKVX NSCLC
[37] = system: NCI-H460 lung
[38] = system: NCI-H226 lung
[39] = system: PC-3 prostate
[40] = system: HT29 colon
[41] = system: A549 NSCLC
[42] = system: SF-268 CNS
[43] = system: HOP-92 NSCLC
[44] = system: DU-145 prostate
[45] = system: CAKI-1 renal
[46] = system: MALME-3M melanoma
[47] = system: MCF7 breast
[48] = system: SW-620 colon
[49] = system: TK-10 renal
[50] = system: SR leukemia
[51] = system: HOP-62 NSCLC
[52] = system: HCT-15 colon
[53] = system: BT-549 breast
[54] = system: U251 CNS
[55] = system: NCI/ADR-RES ovarian
[56] = system: SF-295 CNS
[57] = system: RPMI-8226 leukemia

SMILES: CCOC(=O)/C(=C(/C)NCC(C)C)c1cc(O)c(O)c2c(C)cc(=O)[nH]c12
- GI50 [1]: 5.09 µM
- TGI [1]: > 100 µM
- GI50 [2]: 64.7 µM
- TGI [2]: > 100 µM
- GI50 [3]: 14.3 µM
- TGI [3]: > 100 µM
- GI50 [4]: 3.8 µM
- TGI [4]: > 100 µM
- GI50 [5]: 3.19 µM
- TGI [5]: 30.6 µM
- GI50 [6]: 1.4 µM
- TGI [6]: 55.5 µM
- GI50 [7]: 12.2 µM
- TGI [7]: 46.4 µM
- GI50 [8]: 7.99 µM
- TGI [8]: > 100 µM
- GI50 [9]: 12.4 µM
- TGI [9]: > 100 µM
- GI50 [10]: 46.1 µM
- TGI [10]: > 100 µM
- GI50 [11]: 4.53 µM
- TGI [11]: > 100 µM
- GI50 [12]: 2.62 µM
- TGI [12]: 50 µM
- GI50 [13]: > 100 µM
- TGI [13]: > 100 µM
- GI50 [14]: 4 µM
- TGI [14]: 94.1 µM
- GI50 [15]: 13.8 µM
- TGI [15]: > 100 µM
- GI50 [16]: 13 µM
- TGI [16]: > 100 µM
- GI50 [17]: 4.96 µM
- TGI [17]: > 100 µM
- GI50 [18]: 13.4 µM
- TGI [18]: 57.3 µM
- GI50 [19]: 8.31 µM
- TGI [19]: 29.7 µM
- GI50 [20]: 5.92 µM
- TGI [20]: > 100 µM
- GI50 [21]: 11.1 µM
- TGI [21]: > 100 µM
- GI50 [22]: 2.63 µM
- TGI [22]: > 100 µM
- GI50 [23]: 5.48 µM
- TGI [23]: > 100 µM
- GI50 [24]: 5.52 µM
- TGI [24]: 85.1 µM
- GI50 [25]: 3.85 µM
- TGI [25]: 29.8 µM
- GI50 [26]: 5.78 µM
- TGI [26]: > 100 µM
- GI50 [27]: 3.02 µM
- TGI [27]: 51.6 µM
- GI50 [28]: 5.93 µM
- TGI [28]: > 100 µM
- GI50 [29]: 6.8 µM
- TGI [29]: > 100 µM
- GI50 [30]: 34.7 µM
- TGI [30]: > 100 µM
- GI50 [31]: 3.16 µM
- TGI [31]: > 100 µM
- GI50 [32]: 4.87 µM
- TGI [32]: > 100 µM
- GI50 [33]: 7.12 µM
- TGI [33]: > 100 µM
- GI50 [34]: 9.21 µM
- TGI [34]: > 100 µM
- GI50 [35]: 1.18 µM
- TGI [35]: 20.4 µM
- GI50 [36]: 5.45 µM
- TGI [36]: > 100 µM
- GI50 [37]: 4.32 µM
- TGI [37]: > 100 µM
- GI50 [38]: 10.6 µM
- TGI [38]: > 100 µM
- GI50 [39]: 11.1 µM
- TGI [39]: > 100 µM
- GI50 [40]: > 100 µM
- TGI [40]: > 100 µM
- GI50 [41]: 7.8 µM
- TGI [41]: > 100 µM
- GI50 [42]: 4.67 µM
- TGI [42]: > 100 µM
- GI50 [43]: 9.51 µM
- TGI [43]: 45 µM
- GI50 [44]: 10.5 µM
- TGI [44]: > 100 µM
- GI50 [45]: 5.17 µM
- TGI [45]: > 100 µM
- GI50 [46]: 11.4 µM
- TGI [46]: 70.8 µM
- GI50 [47]: 4.38 µM
- TGI [47]: > 100 µM
- GI50 [48]: 4.95 µM
- TGI [48]: > 100 µM
- GI50 [49]: 9.18 µM
- TGI [49]: 68.3 µM
- GI50 [50]: 4.02 µM
- TGI [50]: > 100 µM
- GI50 [51]: 10.3 µM
- TGI [51]: 37 µM
- GI50 [52]: 2.2 µM
- TGI [52]: > 100 µM
- GI50 [53]: 6.22 µM
- TGI [53]: 66.7 µM
- GI50 [54]: 8.68 µM
- TGI [54]: 50.9 µM
- GI50 [55]: 2.42 µM
- TGI [55]: 95.7 µM
- GI50 [56]: 4.46 µM
- TGI [56]: 48.1 µM
- GI50 [57]: 3.5 µM
- TGI [57]: > 100 µM
